Results: US6143492A, “Optical molecular sensors for cytochrome P450 activity” (Aurora Biosciences Corporation, priority 1999, dated 2000)
Values joined by “and” are separate entries in the source; they are usually repeats but may differ in a detail not shown here. Equal entries are not always repeated. Where two headings read alike, the source gives them in different places.

Legend:
CYP 2C9 = CYP 2C9 (Homo sapiens, UniProt P11712); test: Kinetics of fluorogenic substrates with CYP 2C9; type: biochemical; settings: for conversion to the same fluorescent product vs the most closely structurally-related substrate / kcat / type of kinetics / kcat/Km: CYP 2C9; for v (1.25 uM), turnover rate at 1.25 μM: CYP 2C9, substrate 1.25 uM; for v (10 uM), turnover rate at 10 μM: CYP 2C9, substrate 10 uM
CYP 2B6 [1] = biological target: T1, CYP 2B6 (Homo sapiens, UniProt P20813); test: Kinetics of fluorogenic substrates with CYP 2B6; settings: for v (1.25 uM), turnover rate at 1.25 μM: CYP 2B6, substrate 1.25 uM; for v (10 uM), turnover rate at 10 μM: CYP 2B6, substrate 10 uM
T1 sequence (P20813 1-491): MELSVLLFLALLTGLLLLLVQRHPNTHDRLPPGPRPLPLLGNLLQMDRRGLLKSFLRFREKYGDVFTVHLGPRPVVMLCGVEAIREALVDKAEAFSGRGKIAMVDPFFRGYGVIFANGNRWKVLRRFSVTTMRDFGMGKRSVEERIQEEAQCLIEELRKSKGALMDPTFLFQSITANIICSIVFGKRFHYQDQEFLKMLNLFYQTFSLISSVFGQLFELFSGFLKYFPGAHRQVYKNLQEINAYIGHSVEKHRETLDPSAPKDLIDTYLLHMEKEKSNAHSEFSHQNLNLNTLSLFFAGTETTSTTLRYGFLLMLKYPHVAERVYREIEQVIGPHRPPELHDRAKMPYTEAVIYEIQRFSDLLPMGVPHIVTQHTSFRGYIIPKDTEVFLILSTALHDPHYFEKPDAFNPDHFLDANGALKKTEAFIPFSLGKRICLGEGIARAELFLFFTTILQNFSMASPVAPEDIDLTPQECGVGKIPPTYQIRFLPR

CYP 2D6 = CYP 2D6 (Homo sapiens, UniProt P10635); test: Kinetics of fluorogenic substrates with CYP 2D6; type: biochemical; settings: for kcat / type of kinetics / kcat/Km: CYP 2D6; for v (1.25 uM), turnover rate at 1.25 μM: CYP 2D6, substrate 1.25 uM; for v (10 uM), turnover rate at 10 μM: CYP 2D6, substrate 10 uM; for conversion to the same fluorescent product vs the most closely structurally-related substrate: CYP 3A4 and CYP 2D6, Table 8
CYP 2B6 [2] = biological target: T1, CYP 2B6; settings: for Km: cyp 2b6
CYP 3A4 = biological target: T2, CYP 3A4 (Homo sapiens, UniProt P08684); test: Kinetics of fluorogenic substrates with CYP 3A4; type: biochemical; settings: for kcat / kcat/Km / type of kinetics: CYP 3A4; for v (1.25 uM), turnover rate at 1.25 μM: CYP 3A4, substrate 1.25 uM; for v (10 uM), turnover rate at 10 μM: CYP 3A4, substrate 10 uM
T2 construct: NADPH regenerating system
From the text: Whichever of the four abstractable hydrogen atoms (designated H^1 and H^2 in this representation of BOMR) is removed in the initial reaction step, with reference to Reaction Scheme 1 of FIG. 1, the hydroxylation product will spontaneously decompose to the free resorufin dye. In addition, the benzyloxy group, attached to the carbon carrying the two hydrogens designated H^2, contributes an inductive electronic effect on that carbon, which can stabilize the radical formed during abstraction of one of the H^2 hydrogens by a cytochrome P450.
Optimization of assay conditions was, and is preferably, accomplished through statistically validated Design of Experiments methodologies, using the commercial software package "Design-Expert®" produced by Stat-Ease® Inc. The data shown in FIGS. 4 and 5 were obtained with initial optimization.
For further understanding these terms in the context of this invention, attention is directed to FIG. 4 and the analysis of FIG. 4.

CYP 2C19 = CYP 2C19 (Homo sapiens, UniProt P33261); test: Kinetics of fluorogenic substrates with CYP 2C19; type: biochemical; settings: for v (1.25 uM), turnover rate at 1.25 μM: CYP 2C19, substrate 1.25 uM; for v (10 uM), turnover rate at 10 μM: CYP 2C19, substrate 10 uM
CYP 1A2 = biological target: T3, CYP 1A2 (Homo sapiens, UniProt P05177); test: Kinetics of fluorogenic substrates with CYP 1A2; type: biochemical; settings: for v (1.25 uM), turnover rate at 1.25 μM: CYP 1A2, substrate 1.25 uM; for v (10 uM), turnover rate at 10 μM: CYP 1A2, substrate 10 uM
T3 sequence (P05177 1-516): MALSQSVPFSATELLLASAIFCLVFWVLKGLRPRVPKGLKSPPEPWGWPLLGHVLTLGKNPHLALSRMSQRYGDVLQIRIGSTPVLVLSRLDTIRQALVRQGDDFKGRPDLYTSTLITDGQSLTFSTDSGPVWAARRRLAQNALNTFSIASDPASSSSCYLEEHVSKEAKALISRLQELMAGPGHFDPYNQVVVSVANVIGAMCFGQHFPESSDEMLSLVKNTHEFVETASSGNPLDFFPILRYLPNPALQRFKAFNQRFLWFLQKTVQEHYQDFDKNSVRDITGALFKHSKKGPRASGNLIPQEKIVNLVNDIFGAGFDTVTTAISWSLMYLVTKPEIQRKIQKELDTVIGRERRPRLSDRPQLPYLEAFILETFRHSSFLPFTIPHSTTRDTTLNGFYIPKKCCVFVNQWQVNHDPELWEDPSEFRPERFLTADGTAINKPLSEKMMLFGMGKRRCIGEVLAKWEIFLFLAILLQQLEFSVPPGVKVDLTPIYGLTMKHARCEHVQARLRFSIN

T2 sequence (P08684 whole entry): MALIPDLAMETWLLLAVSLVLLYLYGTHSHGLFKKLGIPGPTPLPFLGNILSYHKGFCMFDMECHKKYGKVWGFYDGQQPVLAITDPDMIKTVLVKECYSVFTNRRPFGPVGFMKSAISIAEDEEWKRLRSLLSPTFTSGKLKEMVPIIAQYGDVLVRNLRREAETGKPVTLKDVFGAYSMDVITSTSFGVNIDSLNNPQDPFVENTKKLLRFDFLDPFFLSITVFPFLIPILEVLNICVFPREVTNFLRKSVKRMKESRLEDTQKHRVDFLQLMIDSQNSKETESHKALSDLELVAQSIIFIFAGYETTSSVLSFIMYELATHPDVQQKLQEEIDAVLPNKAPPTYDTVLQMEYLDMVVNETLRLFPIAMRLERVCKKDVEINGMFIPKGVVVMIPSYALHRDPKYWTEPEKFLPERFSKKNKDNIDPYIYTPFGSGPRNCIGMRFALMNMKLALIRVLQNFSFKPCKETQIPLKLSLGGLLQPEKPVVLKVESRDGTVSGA
CYP 2D6, sequence (P10635 whole entry): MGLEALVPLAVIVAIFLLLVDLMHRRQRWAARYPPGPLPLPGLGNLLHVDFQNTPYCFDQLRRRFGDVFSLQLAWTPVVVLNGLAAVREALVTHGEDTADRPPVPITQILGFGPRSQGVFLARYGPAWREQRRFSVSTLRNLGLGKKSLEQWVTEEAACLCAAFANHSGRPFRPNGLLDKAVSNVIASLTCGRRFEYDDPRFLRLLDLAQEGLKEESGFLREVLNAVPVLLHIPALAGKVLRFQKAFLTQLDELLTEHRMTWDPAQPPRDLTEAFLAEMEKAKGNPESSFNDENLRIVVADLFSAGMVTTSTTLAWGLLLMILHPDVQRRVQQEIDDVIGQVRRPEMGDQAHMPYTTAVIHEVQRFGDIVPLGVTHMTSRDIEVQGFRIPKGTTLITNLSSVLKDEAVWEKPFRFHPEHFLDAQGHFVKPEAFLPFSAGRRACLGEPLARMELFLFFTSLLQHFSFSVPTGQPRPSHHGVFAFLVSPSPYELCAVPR
CYP 2C9, sequence (P11712 whole entry): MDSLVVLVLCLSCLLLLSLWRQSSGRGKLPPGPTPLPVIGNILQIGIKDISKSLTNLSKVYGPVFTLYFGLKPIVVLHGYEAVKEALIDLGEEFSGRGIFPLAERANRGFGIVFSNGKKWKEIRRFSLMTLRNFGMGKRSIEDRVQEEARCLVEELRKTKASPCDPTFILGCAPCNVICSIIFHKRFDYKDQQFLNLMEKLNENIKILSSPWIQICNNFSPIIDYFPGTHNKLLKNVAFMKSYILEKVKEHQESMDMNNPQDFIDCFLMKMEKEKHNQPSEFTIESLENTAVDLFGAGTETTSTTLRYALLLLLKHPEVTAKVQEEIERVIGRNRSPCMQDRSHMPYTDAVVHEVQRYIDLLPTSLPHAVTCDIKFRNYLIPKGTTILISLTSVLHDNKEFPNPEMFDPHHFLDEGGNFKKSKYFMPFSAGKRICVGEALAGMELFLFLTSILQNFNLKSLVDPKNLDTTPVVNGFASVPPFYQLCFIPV
CYP 2C19, sequence (P33261 whole entry): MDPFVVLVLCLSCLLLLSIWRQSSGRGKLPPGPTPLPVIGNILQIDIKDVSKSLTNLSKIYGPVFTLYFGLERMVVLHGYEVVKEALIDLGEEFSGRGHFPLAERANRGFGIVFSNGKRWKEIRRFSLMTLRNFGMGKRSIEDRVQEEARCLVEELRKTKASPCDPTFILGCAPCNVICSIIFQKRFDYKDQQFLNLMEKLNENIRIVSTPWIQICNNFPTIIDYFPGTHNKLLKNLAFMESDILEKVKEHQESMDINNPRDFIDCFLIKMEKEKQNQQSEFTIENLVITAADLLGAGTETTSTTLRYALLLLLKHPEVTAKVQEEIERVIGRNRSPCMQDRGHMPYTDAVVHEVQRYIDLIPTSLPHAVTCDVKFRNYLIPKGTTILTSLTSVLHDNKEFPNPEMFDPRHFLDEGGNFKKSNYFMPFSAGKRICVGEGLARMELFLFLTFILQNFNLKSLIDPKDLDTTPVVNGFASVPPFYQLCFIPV

| Compound | conversion to the same fluorescent product vs the most closely structurally-related substrate (CYP 2C9) | kcat (CYP 2C9) | type of kinetics (CYP 2C9) | v (1.25 uM), turnover rate at 1.25 μM (CYP 2C9) | v (10 uM), turnover rate at 10 μM (CYP 2C9) | kcat (CYP 2D6) | type of kinetics (CYP 2D6) | v (1.25 uM), turnover rate at 1.25 μM (CYP 2D6) | v (10 uM), turnover rate at 10 μM (CYP 2D6) | kcat (CYP 3A4) | kcat/Km (CYP 3A4) | v (1.25 uM), turnover rate at 1.25 μM (CYP 3A4) | v (10 uM), turnover rate at 10 μM (CYP 3A4) | kcat/Km (CYP 2D6) | type of kinetics (CYP 2C19; CYP 2C19) | v (1.25 uM), turnover rate at 1.25 μM (CYP 2C19) | v (10 uM), turnover rate at 10 μM (CYP 2C19) | also measured |
| --- | --- | --- | --- | --- | --- | --- | --- | --- | --- | --- | --- | --- | --- | --- | --- | --- | --- | --- |
| COCOc1ccc2c(C(F)(F)F)cc(=O)oc2c1 [MOMFC, 7-methyloxymethyloxy-4-trifluoromethylcoumarin] | more efficient conversion | 0.0017 s⁻¹ | Michaelis- | 0.00 min⁻¹ | 0.07 min⁻¹ | – | – | – | – | – | – | – | – | – | – | – | – | conversion to the same fluorescent product vs the most closely structurally-related substrate (CYP 2B6 [1]; CYP 2B6): less efficiently converted; type of kinetics (CYP 2B6 [1]; CYP 2B6): not Michaelis-; v (1.25 uM), turnover rate at 1.25 μM (CYP 2B6 [1]): 0.54 min⁻¹; v (10 uM), turnover rate at 10 μM (CYP 2B6 [1]): 0.71 min⁻¹ |
| COc1ccc2c(C(F)(F)F)cc(=O)oc2c1 [MFC, 7-Methoxy-4-trifluoromethylcoumarin, reference compound] | – | 0.0067 s⁻¹ | Michaelis- | 0.01 min⁻¹ | 0.03 min⁻¹ | 0.005 s⁻¹ | Michaelis- | 0.03 min⁻¹ | 0.10 min⁻¹ | – | – | – | – | – | – | – | – | kcat (CYP 2B6 [2]): 0.0483 s⁻¹; kcat/Km (CYP 2B6 [2]): 34524 M⁻¹ s⁻¹; type of kinetics (CYP 2B6 [2]): Michaelis-; v (1.25 uM), turnover rate at 1.25 μM (CYP 2B6 [2]): 1.63 min⁻¹; v (10 uM), turnover rate at 10 μM (CYP 2B6 [2]): 2.53 min⁻¹; Km (CYP 2B6 [2]): 1.4 µM |
| COc1ccc(COc2ccc3c(C(F)(F)F)cc(=O)oc3c2)cc1 [MOBFC] | more efficient conversion | 0.00483 s⁻¹ and 0.005 s⁻¹ | Michaelis- | 0.02 min⁻¹ | 0.188 min⁻¹ and 0.19 min⁻¹ | 0.01 s⁻¹ | Michaelis- | 0.09 min⁻¹ | 0.49 min⁻¹ | 0.012 s⁻¹ | 897 M⁻¹ s⁻¹ | 0.0214 min⁻¹ and 0.02 min⁻¹ | 0.3453 min⁻¹ and 0.35 min⁻¹ | 2067 M⁻¹ s⁻¹ | – | – | – | type of kinetics (CYP 3A4): Michaelis-; kcat/Km (CYP 2C9): 628 M⁻¹ s⁻¹; conversion to the same fluorescent product vs the most closely structurally-related substrate (CYP 2D6): more efficient conversion |
| CCOc1ccc2cc(C#N)c(=O)oc2c1 [3CEC, 3-Cyano-7-ethoxycoumarin, reference compound] | – | – | – | – | – | – | – | – | – | – | – | – | – | – | Michaelis- | 0.05 min⁻¹ | 0.34 min⁻¹ | kcat (CYP 2C19; CYP 2C19): 0.0283 s⁻¹; kcat/Km (CYP 2C19; CYP 2C19): 671 M⁻¹ s⁻¹; kcat (CYP 1A2; CYP 1A2): 0.733 s⁻¹; kcat/Km (CYP 1A2; CYP 1A2): 28205 M⁻¹ s⁻¹; type of kinetics (CYP 1A2; CYP 1A2): Michaelis-; v (1.25 uM), turnover rate at 1.25 μM (CYP 1A2): 1.73 min⁻¹; v (10 uM), turnover rate at 10 μM (CYP 1A2): 12.55 min⁻¹ |
| CCOCOc1ccc2cc(C#N)c(=O)oc2c1 [EOMCC] | – | – | – | – | – | – | – | – | – | – | – | – | – | – | Michaelis- | 0.34 min⁻¹ | 2.22 min⁻¹ | conversion to the same fluorescent product vs the most closely structurally-related substrate (CYP 2C19; CYP 2C19): more efficient conversion; kcat (CYP 2C19; CYP 2C19): 0.095 s⁻¹; kcat/Km (CYP 2C19; CYP 2C19): 5723 M⁻¹ s⁻¹; conversion to the corresponding fluorescent product vs 3CEC (CYP 1A2; CYP 1A2): a little bit more efficiently; kcat (CYP 1A2; CYP 1A2): 0.35 s⁻¹; kcat/Km (CYP 1A2; CYP 1A2): 31818 M⁻¹ s⁻¹; type of kinetics (CYP 1A2; CYP 1A2): Michaelis-; v (1.25 uM), turnover rate at 1.25 μM (CYP 1A2): 1.77 min⁻¹; v (10 uM), turnover rate at 10 μM (CYP 1A2): 9.95 min⁻¹ |

More lines, main results first:

| conversion to the same fluorescent product vs the most closely structurally-related substrate (CYP 2C9) | kcat (CYP 2C9) | type of kinetics (CYP 2C9) | v (1.25 uM), turnover rate at 1.25 μM (CYP 2C9) | v (10 uM), turnover rate at 10 μM (CYP 2C9) | kcat (CYP 2D6) | type of kinetics (CYP 2D6) | v (1.25 uM), turnover rate at 1.25 μM (CYP 2D6) | v (10 uM), turnover rate at 10 μM (CYP 2D6) | kcat (CYP 3A4) | kcat/Km (CYP 3A4) | v (1.25 uM), turnover rate at 1.25 μM (CYP 3A4) | v (10 uM), turnover rate at 10 μM (CYP 3A4) | kcat/Km (CYP 2D6) | type of kinetics (CYP 2C19; CYP 2C19) | v (1.25 uM), turnover rate at 1.25 μM (CYP 2C19) | v (10 uM), turnover rate at 10 μM (CYP 2C19) | Compound | also measured |
| --- | --- | --- | --- | --- | --- | --- | --- | --- | --- | --- | --- | --- | --- | --- | --- | --- | --- | --- |
| more efficient conversion | 0 s⁻¹ | Michaelis- | 0.02 min⁻¹ | 0.02 min⁻¹ | – | Michaelis- | 0.0185 min⁻¹ and 0.02 min⁻¹ | 0.0409 min⁻¹ and 0.04 min⁻¹ | – | – | – | – | 263 M⁻¹ s⁻¹ | not MMK | 1.26 min⁻¹ | 0.69 min⁻¹ | COc1ccc(COc2ccc3nc4ccc(=O)cc-4oc3c2)cc1 [MOBR, Paramethoxybenzylresorufin] | kcat/Km (CYP 2C9): 952 M⁻¹ s⁻¹; conversion to the same fluorescent product vs the most closely structurally-related substrate (CYP 2D6): more efficient conversion; kcat (CYP 2B6 [2]): 0.0067 s⁻¹; kcat/Km (CYP 2B6 [2]): 58333 M⁻¹ s⁻¹; type of kinetics (CYP 2B6 [2]): Michaelis-; v (1.25 uM), turnover rate at 1.25 μM (CYP 2B6 [2]): 0.08 min⁻¹; v (10 uM), turnover rate at 10 μM (CYP 2B6 [2]): 0.10 min⁻¹; Km (CYP 2B6 [2]): 0.1 µM |
| – | – | – | – | – | – | – | – | – | 0.0017 s⁻¹ | 377 M⁻¹ s⁻¹ | 0.02 min⁻¹ | 0.08 min⁻¹ | – | – | – | – | O=c1ccc2nc3ccc(OCc4ccccc4)cc3oc-2c1 [BR, Benzylresorufin, reference compound] | type of kinetics (CYP 3A4): Michaelis-; turnover rate (kcat) (CYP 3A4; CYP 3A4, FIG. 4 data): 0.00167 s⁻¹; type of kinetics (CYP 2B6 [1]; CYP 2B6): not Michaelis-; v (1.25 uM), turnover rate at 1.25 μM (CYP 2B6 [1]): 0.42 min⁻¹; v (10 uM), turnover rate at 10 μM (CYP 2B6 [1]): 0.42 min⁻¹ |
| – | – | – | – | – | 0.00567 s⁻¹ | – | 0.03396 min⁻¹ | 0.2146 min⁻¹ | 0.001 s⁻¹ | 167 M⁻¹ s⁻¹ | 0.0083 min⁻¹ | 0.0338 min⁻¹ | 708 M⁻¹ s⁻¹ | – | 0.06 min⁻¹ | 0.062 min⁻¹ | COCOc1ccc2nc3ccc(=O)cc-3oc2c1 [MOMR] | – |
